Experimental data published in patent publication US20020007663A1, “Method of introducing an in situant into a vapor compression system, especially useful for leak detection, as well as an apparatus for leak detection and a composition useful for leak detection” (Mainstream Engineering Corporation, priority 1997, published 2002).
Read-outs that look alike come from different tables or passages of the source.

Assay: solubility of fluorescent in situants in POE oils, alcohols, AB oil and mineral oil
Settings: for solubility in POE oil: two different POE oils
Experimental: We have measured the solubility of several fluorescent and daylight-visible in situants in various POE oils and prepared solutions comprised solely of the POE carrier fluid (i.e., no alcohol in the carrier fluid) and these in situants. An example composition is 30 wt. % N-phenyl-1-naphthylamine and 70 wt. % POE oil. […] For example, a composition was prepared with 30 wt. % N-phenyl-1-naphthylamine, 1 wt. % 7-diethylamino-4-methylcoumarin (coumarin 1) and 69 wt. % POE oil. […] The preferred final composition of the fluorescing or daylight visible in situant in the system oil will be below the solubility limits.

[1] = POE oil or alcohols, qualitative

Row | Compound | soluble in POE oil or alcohols | also measured
1 | NC(=O)c1nc2ccc(O)cc2s1 [2-carbamoyl-6-hydroxybenzothiazole] | soluble | –
2 | Oc1ccc2nc(-c3nc4ccccc4s3)sc2c1 [2′-(2-benzothiazolyl)-6′-hydroxybenzothiazole] | soluble | –
3 | c1ccc(N=Nc2ccc(Nc3ccccc3)cc2)cc1 [4-(phenylazo)-diphenylamine] | soluble | –
4 | c1ccc(Nc2cccc3ccccc23)cc1 [N-phenyl-1-naphthylamine] | – | solubility in AB oil (AB oil): about 10 weight percent; solubility in alcohols: 20-30%; solubility in mineral oil (mineral oil): ~3 weight percent; solubility in POE oil: 20-30 % by wt.
5 | c1ccc(Nc2ccc3ccccc3c2)cc1 [N-phenyl-2-naphthylamine] | – | soluble in POE oil or alcohols [1]: soluble; solubility in alcohols: 1-6%; solubility in POE oil: about 5 % by wt.
6 | O=C1c2cccc(O)c2C(=O)c2cccc(O)c21 [anthrarufin] | soluble | –
7 | c1ccc2c(c1)Nc1ccccc1S2 [phenothiazine] | – | soluble in POE oil or alcohols [1]: soluble

Second part, led by results:

Row | soluble in POE oil or alcohols | Compound | also measured
8 | soluble | c1ccc(Nc2ccccc2)cc1 [diphenylamine] | –
9 | soluble | O=C1c2ccccc2C(=O)c2c(O)c(O)cc(O)c21 [purpurin] | –
10 | soluble | O=C1c2ccc(O)c(O)c2C(=O)c2c(O)ccc(O)c21 [quinalizarin] | –
11 | soluble | Cc1ccc2nc(-c3ccc(N=NNc4ccc(-c5nc6ccc(C)c(S(=O)(=O)[O-])c6s5)cc4)cc3)sc2c1S(=O)(=O)[O-].[Na+].[Na+] [thiazole yellow G] | –
12 | soluble | primuline | –
